In US20190224341A1, “RENAL CLEARABLE ORGANIC NANOCARRIERS” (The General Hospital Corporation, priority 2016, published 2019):

Assay: In vivo biodistribution and pharmacokinetics in CD-1 mice
Details: i.v. 10 nmol
Method: Six weeks old CD-1 mice (male; 25-30 g) were purchased from Charles River Laboratories (Wilmington, Mass.). Mice were maintained under anesthesia by intraperitoneal injection with 100 mg/kg ketamine and 10 mg/kg xylazine (Webster Veterinary, Fort Devens, MA) for the entire duration of the experiment. The end of the tail was cut to enable blood extraction. Before injection, blood was then sampled in heparinized capillary tubes (Fisher Scientific, Pittsburgh, Pa.) as a reference and collected blood was stored in an ice box to prevent clotting. […] Mice were imaged using the in-house built real-time intraoperative MR imaging system. A 760 nm excitation laser source (4 mW/cm) was used with white light (400-650 nm; 40,000 lux). Color and MR fluorescence images were acquired simultaneously with customized software at rates of up to 15 Hz over a field of view with 15 cm in diameter. After 4 h post-injection, mice were sacrificed to image organs and collected urine from the bladder. At least 3 mice were analyzed for each sample.
The collected blood samples were centrifuged for 20 min at 3000 rpm in order to separate serum and blood plasma, and supernatants were then filled into capillary microtubes. Fluorescence intensities of the microtubes were measured using the in-house built MR imaging system. […]

Signal-to-background ratio (SBR) of each organ against muscle (4 h, resected organs): highest SBR in the kidneys
Structure (SMILES): CC1(C)C(/C=C/C2=C(c3ccc(CCC(=O)O)cc3)C(=C/C=C3/N(CCC[N+](C)(C)C)c4ccc(S(=O)(=O)O)cc4C3(C)C)/CCC2)=[N+](CCC[N+](C)(C)C)c2ccc(S(=O)(=O)O)cc21 [ZW800-1C]
Biodistribution by NIR fluorescence imaging (4 h post-injection): excretes to the bladder 4 h after injection
